Test results reported in the supplement of paper PMC11061612.

What was measured:
Test in all cases: Bliss excess, mean over the matrix (fraction); higher = more synergy
[1] = test system: RD (Rhabdomyosarcoma)
Procedure, shortened: (§1)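 After 24 hours at 37°C and 5% CO2 in 1536-well plates, cells in DMEM/F12 or RPMI plus 10% FBS received two-drug dose matrices for 72 hours. Viability came from CellTiter-Glo 2.0 luminescence and was scaled as inhibition, anchored at 0 by vehicle wells and at 1 by blank wells. Combination Emax is taken as the second-highest inhibition in the matrix, and Bliss excess as the observed combination effect less EA + EB − EA·EB, with EA and EB the single-agent effects.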

[2] = test system: MOLM-13 (Acute Myeloid Leukemia)
Procedure, shortened: as §1

[3] = test system: DAN-G (Pancreatic Carcinoma)
Procedure, shortened: as §1

[4] = test system: KY821 (Acute Myeloid Leukemia)
Procedure, shortened: as §1

[5] = test system: ST486 (Burkitt's Lymphoma)
Procedure, shortened: as §1

[6] = test system: NCI-H661 (Non-Small Cell Lung Carcinoma)
Procedure, shortened: as §1

[7] = test system: MOG-G-CCM (Low Grade Glioma)
Procedure, shortened: as §1

[8] = test system: NCI-H520 (Squamous Cell Lung Carcinoma)
Procedure, shortened: as §1

[9] = test system: NCI-H929 (Plasma Cell Myeloma)
Procedure, shortened: as §1

[10] = test system: KMS-12-BM (Plasma Cell Myeloma)
Procedure, shortened: as §1

[11] = test system: HCC1419 (Breast Carcinoma)
Procedure, shortened: as §1

[12] = test system: DMS-114 (Small Cell Lung Carcinoma)
Procedure, shortened: as §1

[13] = test system: NCCIT (Other Solid Carcinomas)
Procedure, shortened: as §1

[14] = test system: RPMI-8226 (Plasma Cell Myeloma)
Procedure, shortened: as §1

[15] = test system: KP-3 (Pancreatic Carcinoma)
Procedure, shortened: as §1

[16] = test system: SJSA-1 (Osteosarcoma)
Procedure, shortened: as §1

[17] = test system: 8505C (Thyroid Gland Carcinoma)
Procedure, shortened: as §1

[18] = test system: SNU-398 (Hepatocellular Carcinoma)
Procedure, shortened: as §1

[19] = test system: HCC1187 (Breast Carcinoma)
Procedure, shortened: as §1

[20] = test system: NCI-H3122 (Lung Adenocarcinoma)
Procedure, shortened: as §1

Row | SMILES | Bliss excess [1] | Bliss excess [2] | Bliss excess [3] | Bliss excess [4] | Bliss excess [5] | Bliss excess [6] | Bliss excess [7] | Bliss excess [8] | Bliss excess [9] | Bliss excess [10] | Bliss excess [11] | Bliss excess [12] | Bliss excess [13] | Bliss excess [14] | Bliss excess [15] | Bliss excess [16] | Bliss excess [17] | Bliss excess [18] | Bliss excess [19] | Bliss excess [20]
1 | Cc1c2c(nn1C)CSCc1cc(n(C)n1)CSc1cc(c3ccccc3c1)OCCCc1c(C(=O)O)n(C)c3c-2c(Cl)ccc13 [AZD5991] + CN(C)CCCOc1ccc(-c2ccc3ncc4c(c3c2)n(C2CCOCC2)c(=O)n4C)cn1 [AZD0156] (first compound max 1 µM, 7x7, partner max 1 µM) | 0.0095 | -0.0329 | 0.0141 | -0.0327 | -0.0716 | -0.0054 | -0.0067 | -0.0011 | -0.0121 | -0.0445 | 0.0105 | 0.003 | -0.039 | 0.0147 | 0.0077 | 0.0256 | -0.137 | -0.0018 | -0.0266 | 0.0187
2 | CC(=O)Nc1cccc(-n2c(=O)n(C3CC3)c(=O)c3c(Nc4ccc(I)cc4F)n(C)c(=O)c(C)c32)c1 [Trametinib] + Cc1nc(-c2cn3c(n2)-c2ccc(-c4cnn(C(C)(C)C(N)=O)c4)cc2OCC3)n(C(C)C)n1 [Taselisib] (first compound max 1 µM, 7x7, partner max 10 µM) | 0.261 | 0.215 | 0.124 | -0.0601 | -0.033 | 0.115 | 0.0182 | 0.0256 | 0.0401 | 0.103 | 0.032 | 0.079 | 0.0184 | 0.25 | 0.0777 | 0.0501 | 0.142 | 0.0676 | 0.0462 | 0.116
3 | COc1cccc2c1C(=O)c1c(O)c3c(c(O)c1C2=O)C[C@@](O)(C(=O)CO)C[C@@H]3O[C@H]1C[C@H](N)[C@H](O)[C@H](C)O1 [Doxorubicin] + Cc1cc2ncnn2cc1Nc1ncc2c(n1)n(C1CCOCC1)c(=O)n2C [AZD7648] (first compound max 1 µM, 7x7, partner max 10 µM) | 0.0368 | 0.0551 | 0.0173 | 0.0822 | 0.0895 | 0.0465 | 0.0213 | 0.0158 | 0.126 | 0.0946 | -0.128 | 0.0288 | -0.0142 | 0.124 | -0.0405 | 0.0555 | 0.0859 | 0.056 | 0.114 | 0.031
4 | CC1(C)CCC(CN2CCN(c3ccc(C(=O)NS(=O)(=O)c4ccc(NCC5CCOCC5)c([N+](=O)[O-])c4)c(Oc4cnc5[nH]ccc5c4)c3)CC2)=C(c2ccc(Cl)cc2)C1 [Venetoclax] + C=CCn1c(=O)c2cnc(Nc3ccc(N4CCN(C)CC4)cc3)nc2n1-c1cccc(C(C)(C)O)n1 [AZD1775] (first compound max 1 µM, partner max 1 µM) | -0.0163 | 0.0122 | -0.0114 | -0.0104 | 0.108 | -0.0588 | 0.0303 | -0.0031 | 0.0499 | 0.0356 | -0.0261 | 0.0056 | 0.0522 | 0.0368 | -0.0085 | -0.0733 | -0.0083 | 0.0035 | -0.0522 | -0.0505
5 | Cc1c2c(nn1C)CSCc1cc(n(C)n1)CSc1cc(c3ccccc3c1)OCCCc1c(C(=O)O)n(C)c3c-2c(Cl)ccc13 [AZD5991] + CCN(CCO)CCCOc1ccc2c(Nc3cc(CC(=O)Nc4cccc(F)c4)[nH]n3)ncnc2c1 [AZD2811] (first compound max 1 µM, 7x7, partner max 1 µM) | 0.0268 | 0.024 | 0.0055 | 0.0053 | -0.0575 | 0.0328 | 0.0013 | 0.0632 | 0.0409 | 0.0257 | -0.0638 | 0.0287 | -0.0049 | 0.0744 | -0.0026 | 0.0839 | 0.119 | 0.0359 | -0.0292 | 0.0531
6 | C[C@@H](c1ccc2nccn2c1)n1nnc2ncc(-c3cnn(C)c3)nc21 [Savolitinib] + CC1(C)CCC(CN2CCN(c3ccc(C(=O)NS(=O)(=O)c4ccc(NCC5CCOCC5)c([N+](=O)[O-])c4)c(Oc4cnc5[nH]ccc5c4)c3)CC2)=C(c2ccc(Cl)cc2)C1 [Venetoclax] (first compound max 1 µM, 7x7, partner max 1 µM) | -0.0598 | 0.0025 | -0.09 | -0.0139 | -0.0481 | -0.0651 | -0.0448 | -0.0333 | 0.0439 | 0.0253 | -0.0225 | 0.0131 | -0.0394 | -0.0456 | -0.0762 | -0.0775 | -0.0664 | -0.057 | -0.0494 | -0.0394
7 | C[C@@H](c1ccc2nccn2c1)n1nnc2ncc(-c3cnn(C)c3)nc21 [Savolitinib] + Cc1c2c(nn1C)CSCc1cc(n(C)n1)CSc1cc(c3ccccc3c1)OCCCc1c(C(=O)O)n(C)c3c-2c(Cl)ccc13 [AZD5991] (first compound max 1 µM, 7x7, partner max 1 µM) | -0.0177 | -0.0112 | -0.0434 | -0.0415 | -0.0159 | -0.0666 | -0.0683 | -0.0539 | 0.0063 | -0.0168 | 0.0448 | -0.0755 | -0.0528 | -0.0125 | -0.0785 | -0.0714 | -0.0324 | -0.0697 | -0.0038 | -0.0562
